Bridge positions count the residues as written; N and C are the ends. Ends that are not written are not given here. Peptide text beside a SMILES is read from it. * marks the point of attachment. FITC = O=C1OC2(c3ccc(O)cc3Oc3cc(O)ccc32)c2ccc(NC(=S)*)cc21; Stearoyl = CCCCCCCCCCCCCCCCCC(=O)*
What was measured:
[1] = system: HPV-GFP (HPV16 pseudovirus carrying GFP); format: cell-based; settings: HeLa cells; ∼500 nM lipopeptide during inoculation; GFP at 36 hpi
[2] = system: HPV-Lucia (HPV16 pseudovirus carrying Lucia); settings: for Relative anti-HPV activity: CHO-K1 cells, HPV-Lucia, Lucia activity at 36 hpi, potency compared with WT peptide (13-48, 100%) used at four concentrations; for IC50: 4 h
furin cleavage of HPV L2 = assay: Furin cleavage of PSTCD-fused L2 (immunoblot); format: cell-based, HPV16; settings: CHO-K1 cells, HPV-L2-PSTCD-3×FLAG MOI of 50; 500 nM dRVRK, 500 nM 13-46st, 100 nM BafA1, 1 μM γ-secretase inhibitor XXI; anti-FLAG immunoblot
Description: FIG 5 The L2N lipopeptide blocks HPV entry without affecting HPV capsid priming and internalization. (A) Cell binding and uptake of L2N lipopeptide. HeLa cells were incubated with 500 nM FITC-m13-46st peptide for indicated times. Images were captured after three PBS washes. Bar, 25 μm. (B) L2N lipopeptide inhibits HPV-GFP entry. HeLa cells were treated with 500 nM L2N lipopeptide (13-46st) before (pre), during (co), or after (post) HPV-GFP inoculation. Mock, no peptide treatment. GFP intensity was analyzed at 36 hpi. Bar, 200 μm. (C) Peptide addition/withdrawal assays were performed as indicated in the schematic diagram (top). CHO-K1 cells were incubated with HPV-Lucia at 4°C for 2 h. […] Lucia activity was analyzed at 40 hpi. […] Intracellular L1 and L2 levels were determined by immunoblotting with MD2H11 and JWW-1, respectively. […] HPV L2 JWW-1 epitope exposure was analyzed by immunostaining with JWW-1 antibody (in red). […]
To further dissect how the L2N lipopeptide interfered with HPV entry, we tested whether furin cleavage, internalization, and JWW-1 epitope exposure of HPV were affected by peptide treatment in either CHO-K1 cells or HeLa cells. Furin cleavage was analyzed by infection of HPV PsV carrying Propionibacterium shermanii transcarboxylase domain (PSTCD)-fused L2. […] Internalization of viral particles was analyzed by detecting intracellular L1 and L2 at 2 h postinfection.

HeLa cells = assay: L2N-FITC peptide binding and uptake assay; format: cell-based, homo sapiens; settings: 500 nM FITC-m13-46st for indicated times, three PBS washes, fluorescence imaging
Description: FIG 5 The L2N lipopeptide blocks HPV entry without affecting HPV capsid priming and internalization. (A) Cell binding and uptake of L2N lipopeptide. HeLa cells were incubated with 500 nM FITC-m13-46st peptide for indicated times. Images were captured after three PBS washes. Bar, 25 μm. (B) L2N lipopeptide inhibits HPV-GFP entry. HeLa cells were treated with 500 nM L2N lipopeptide (13-46st) before (pre), during (co), or after (post) HPV-GFP inoculation. Mock, no peptide treatment. GFP intensity was analyzed at 36 hpi. Bar, 200 μm. (C) Peptide addition/withdrawal assays were performed as indicated in the schematic diagram (top). CHO-K1 cells were incubated with HPV-Lucia at 4°C for 2 h. The 13-46st lipopeptide (500 nM) was subsequently added or withdrawn from the medium 1, 2, 4, 8, and 16 h after viral attachment. Lucia activity was analyzed at 40 hpi. (D) CHO-K1 cells were infected with HPV-L2-PSTCD-3×FLAG (MOI of 50) and treated with the indicated chemicals: 500 nM dRVRK, 500 nM L2N lipopeptide 13-46st (L2N), 100 nM BafA1, and 1 μM γ-secretase inhibitor XXI. L2 immunoblotting was performed with anti-FLAG antibody at 16 hpi. […] Intracellular L1 and L2 levels were determined by immunoblotting with MD2H11 and JWW-1, respectively. […] HPV L2 JWW-1 epitope exposure was analyzed by immunostaining with JWW-1 antibody (in red). […]

Molecule | Relative anti-HPV activity [2] [%] | IC50 [2] [nM] | also measured
SVIM: L2N13-48 peptide with cysteine-to-serine mutation in the CVIM motif, negative control | 0 | – | inhibition of HPV-GFP infection by L2N-CVIM lipopeptides (in words) [1]: completely abolished their ability to inhibit HPV-GFP infection
pZeo5-tSA-Furin-13-48GT-CVIM-d42: HPV16 L2N13-48 lipopeptide with deletion of A42 (ASATQLYKTCKQAGTCPPDIIPKVEGKTIEQILQY; not fully specified (C-terminus); cysteine pairing not given here; also: CVIM isoprenylation motif lipopeptide; UniProt P03107 13-48, looked up, variant A42*) | < 1 | – | –
CCCCCCCCCCCCCCCCCC(=O)NCCCC[C@H](NC(=O)[C@H](CO)NC(=O)CNC(=O)[C@H](Cc1ccc(O)cc1)NC(=O)[C@H](CCC(N)=O)NC(=O)[C@H](CC(C)C)NC(=O)[C@@H](NC(=O)[C@H](CCC(N)=O)NC(=O)[C@H](CCCCN)NC(=O)[C@H](C)NC(=O)[C@@H](NC(=O)[C@@H](NC(=O)[C@H](CCCCN)NC(=O)CNC(=O)[C@H](CCC(=O)O)NC(=O)[C@@H](NC(=O)[C@H](CCCCN)NC(=O)[C@@H]1CCCN1C(=O)[C@@H](NC(=O)[C@@H](NC(=O)[C@H](CC(=O)O)NC(=O)[C@@H]1CCCN1C(=O)[C@@H]1CCCN1C(=O)[C@@H]1CSSC[C@H](NC(=O)[C@@H](NC(=O)[C@H](CCCCN)NC(=O)[C@H](Cc2ccc(O)cc2)NC(=O)[C@H](CC(C)C)NC(=O)[C@H](CCC(N)=O)NC(=O)[C@@H](NC(=O)[C@H](C)NC(=O)[C@H](CO)NC(=O)[C@H](C)N)[C@@H](C)O)[C@@H](C)O)C(=O)N[C@@H](CCCCN)C(=O)N[C@@H](CCC(N)=O)C(=O)N[C@@H](C)C(=O)NCC(=O)N[C@@H]([C@@H](C)O)C(=O)N1)[C@@H](C)CC)[C@@H](C)CC)C(C)C)[C@@H](C)O)[C@@H](C)CC)[C@@H](C)CC)C(=O)O [13-50st-D43K] (H-ASATQLYKTCKQAGTCPPDIIPKVEGKTIAKQILQYGSK(Stearoyl)-OH; disulfide 10-16) | – | 200 | –
13-48CVIM: HPV16 L2N13-48 lipopeptide produced in 293T cells, CVIM motif isoprenylated (geranylgeranylation), released by furin | 100 | – | inhibition of HPV-GFP infection by L2N-CVIM lipopeptides (in words) [1]: suppressed HPV-GFP infection
pZeo5-tSA-Furin-13-48GT-CVIM-D31K: HPV16 L2N13-48 lipopeptide with D31K | 20 | – | –
13-55CVIM: HPV16 L2N13-55 lipopeptide produced in 293T cells, CVIM motif isoprenylated, released by furin | 10 | – | inhibition of HPV-GFP infection by L2N-CVIM lipopeptides (in words) [1]: suppressed HPV-GFP infection
CCCCCCCCCCCCCCCCCC(=O)NCCCC[C@H](NC(=O)[C@H](CO)NC(=O)CNC(=O)[C@H](Cc1ccc(O)cc1)NC(=O)[C@H](CCC(N)=O)NC(=O)[C@H](CC(C)C)NC(=O)[C@@H](NC(=O)[C@H](CCC(N)=O)NC(=O)[C@H](CC(=O)O)NC(=O)[C@H](C)NC(=O)[C@@H](NC(=O)[C@@H](NC(=O)[C@H](CCCCN)NC(=O)CNC(=O)[C@H](CCC(=O)O)NC(=O)[C@@H](NC(=O)[C@H](CCCCN)NC(=O)[C@@H]1CCCN1C(=O)[C@@H](NC(=O)[C@@H](NC(=O)[C@H](CC(=O)O)NC(=O)[C@@H]1CCCN1C(=O)[C@@H]1CCCN1C(=O)[C@@H]1CSSC[C@H](NC(=O)[C@@H](NC(=O)[C@H](CCCCN)NC(=O)[C@H](Cc2ccc(O)cc2)NC(=O)[C@H](CC(C)C)NC(=O)[C@H](CCC(N)=O)NC(=O)[C@@H](NC(=O)[C@H](C)NC(=O)[C@H](CO)NC(=O)[C@H](C)N)[C@@H](C)O)[C@@H](C)O)C(=O)N[C@@H](CCCCN)C(=O)N[C@@H](CCC(N)=O)C(=O)N[C@@H](C)C(=O)NCC(=O)N[C@@H]([C@@H](C)O)C(=O)N1)[C@@H](C)CC)[C@@H](C)CC)C(C)C)[C@@H](C)O)[C@@H](C)CC)[C@@H](C)CC)C(=O)O [13-50st] (H-ASATQLYKTCKQAGTCPPDIIPKVEGKTIADQILQYGSK(Stearoyl)-OH; disulfide 10-16) | – | 30 | –
CCCCCCCCCC(=O)N[C@@H](CCCN=C(N)N)C(=O)N[C@H](C(=O)N[C@@H](CCCCN)C(=O)N[C@@H](CCCN=C(N)N)C(=O)CCl)C(C)C [dRVRK] (HELM PEPTIDE1{[CCCCCCCCCC(=O)[*:2]].R.V.K.R.[ClC[*:1]]}$$$$V2.0) | – | – | furin cleavage of L2 (furin cleavage of HPV L2): furin cleavage was inhibited
pZeo5-tSA-Furin-13-46GT-CVIM: HPV16 L2N lipopeptide with L2N13-46 | 200 | – | –
pZeo5-tSA-Furin-13-44GT-CVIM: HPV16 L2N13-48 lipopeptide with deletion of ILQY | < 0.8 | – | –
CCCCCCCCCCCCCCCCCC(=O)NCCCC[C@H](NC(=O)[C@H](CCCCNC(=S)Nc1ccc2c(c1)C(=O)OC21c2ccc(O)cc2Oc2cc(O)ccc21)NC(=O)[C@H](CO)NC(=O)CNC(=O)[C@H](CC(C)C)NC(=O)[C@@H](NC(=O)[C@H](CCCNC(=N)N)NC(=O)[C@H](CC(=O)O)NC(=O)[C@H](C)NC(=O)[C@H](CC(C)C)NC(=O)[C@@H](NC(=O)[C@H](CC(N)=O)NC(=O)CNC(=O)[C@H](CCC(=O)O)NC(=O)[C@@H](NC(=O)[C@H](CCCCN)NC(=O)[C@H](CC(N)=O)NC(=O)[C@@H](NC(=O)[C@@H](NC(=O)[C@H](CC(=O)O)NC(=O)[C@@H]1CCCN1C(=O)[C@@H]1CCCN1C(=O)[C@@H]1CSSC[C@H](NC(=O)[C@H](CCC(N)=O)NC(=O)[C@H](CCCNC(=N)N)NC(=O)[C@H](Cc2ccc(O)cc2)NC(=O)[C@H](CC(C)C)NC(=O)[C@H](CC(N)=O)NC(=O)[C@H](CO)NC(=O)[C@H](C)NC(=O)[C@H](CO)NC(=O)[C@@H](N)CC(=O)O)C(=O)N[C@@H](CCC(N)=O)C(=O)N[C@@H](C(C)C)C(=O)N[C@@H]([C@@H](C)O)C(=O)NCC(=O)N[C@@H](CC(N)=O)C(=O)N1)C(C)C)C(C)C)C(C)C)[C@@H](C)O)[C@@H](C)CC)C(=O)O [FITC-m13-46st] (H-DSASNLYRQCQVTGNCPPDVVNKVEGNTLADRILGSK(FITC)K(Stearoyl)-OH; disulfide 10-16) | – | < 10 | cell binding and uptake of the lipopeptide (HeLa cells): readily detected on HeLa cells at 15 min postincubation, and significant internalization was observed at 30 min postincubation and became apparent at 2 h postincubation
ASATQLYKTCKQAGTCPPDIIPKVEGKTIADQILQYGSMGVFFK(Stearoyl) (disulfide 10-16) [13-55st] | – | 100 | –
ASATQLYKTCKQAGTCPPDIIPKVEGKTIADQILQYGSMGVFF (disulfide 10-16) [13-55-no st] | – | > 1000 | –
pZeo5-tSA-Furin-13-48GT-CVIM-QQKK: HPV16 L2N13-48 lipopeptide with double Q44K and Q47K | 150 | – | –
pZeo5-tSA-Furin-13-46-CVIM: HPV16 L2N13-46 lipopeptide with deletion of QYGT | 5 | – | –
